Common to all, as to assay type: biochemical
One experiment has as its target LRRK2 (Homo sapiens, UniProt Q5S007). Put plainly: LRRK2 WT assay (Assay B, radiometric 33P-ATP filter binding). The note with it: Assay B (values marked *). As to the method: LRRK2(human) is incubated with 50 mM HEPES pH 8.0, 0.2 mM EDTA, 0.01% Brij-35, 1% (w/v) BSA, 5 mM DTT, 250 Mm […], 10 mM Magnesium acetate and [[…]]-ATP (specific activity and concentration as required).
The reaction is initiated by the addition of the Mg/ATP mix.

The next experiment concerns the target T1, full-length LRRK2 G2019S (Homo sapiens, UniProt Q5S007, G2019S).
T1 construct: DYKDDDDK (FLAG)
Put plainly: LRRK2-G2019S kinase activity assay (Lanthascreen TR-FRET). The note with it: 1.1 mM ATP.

Experiment [1] concerns the target T2, full-length LRRK2 wild type (Homo sapiens, UniProt Q5S007).
T2 construct: DYDDDDK tagged full-length LRRK2 wild type is used
As to the kind of experiment: LRRK2 WT assay (Assay A, Lanthascreen TR-FRET, 500 uM ATP). The note with it: Assay A (values without *). In general terms: TR-FRET usually uses a lanthanide donor and a delayed reading to cut background.

T1 sequence (Q5S007 whole entry G2019S): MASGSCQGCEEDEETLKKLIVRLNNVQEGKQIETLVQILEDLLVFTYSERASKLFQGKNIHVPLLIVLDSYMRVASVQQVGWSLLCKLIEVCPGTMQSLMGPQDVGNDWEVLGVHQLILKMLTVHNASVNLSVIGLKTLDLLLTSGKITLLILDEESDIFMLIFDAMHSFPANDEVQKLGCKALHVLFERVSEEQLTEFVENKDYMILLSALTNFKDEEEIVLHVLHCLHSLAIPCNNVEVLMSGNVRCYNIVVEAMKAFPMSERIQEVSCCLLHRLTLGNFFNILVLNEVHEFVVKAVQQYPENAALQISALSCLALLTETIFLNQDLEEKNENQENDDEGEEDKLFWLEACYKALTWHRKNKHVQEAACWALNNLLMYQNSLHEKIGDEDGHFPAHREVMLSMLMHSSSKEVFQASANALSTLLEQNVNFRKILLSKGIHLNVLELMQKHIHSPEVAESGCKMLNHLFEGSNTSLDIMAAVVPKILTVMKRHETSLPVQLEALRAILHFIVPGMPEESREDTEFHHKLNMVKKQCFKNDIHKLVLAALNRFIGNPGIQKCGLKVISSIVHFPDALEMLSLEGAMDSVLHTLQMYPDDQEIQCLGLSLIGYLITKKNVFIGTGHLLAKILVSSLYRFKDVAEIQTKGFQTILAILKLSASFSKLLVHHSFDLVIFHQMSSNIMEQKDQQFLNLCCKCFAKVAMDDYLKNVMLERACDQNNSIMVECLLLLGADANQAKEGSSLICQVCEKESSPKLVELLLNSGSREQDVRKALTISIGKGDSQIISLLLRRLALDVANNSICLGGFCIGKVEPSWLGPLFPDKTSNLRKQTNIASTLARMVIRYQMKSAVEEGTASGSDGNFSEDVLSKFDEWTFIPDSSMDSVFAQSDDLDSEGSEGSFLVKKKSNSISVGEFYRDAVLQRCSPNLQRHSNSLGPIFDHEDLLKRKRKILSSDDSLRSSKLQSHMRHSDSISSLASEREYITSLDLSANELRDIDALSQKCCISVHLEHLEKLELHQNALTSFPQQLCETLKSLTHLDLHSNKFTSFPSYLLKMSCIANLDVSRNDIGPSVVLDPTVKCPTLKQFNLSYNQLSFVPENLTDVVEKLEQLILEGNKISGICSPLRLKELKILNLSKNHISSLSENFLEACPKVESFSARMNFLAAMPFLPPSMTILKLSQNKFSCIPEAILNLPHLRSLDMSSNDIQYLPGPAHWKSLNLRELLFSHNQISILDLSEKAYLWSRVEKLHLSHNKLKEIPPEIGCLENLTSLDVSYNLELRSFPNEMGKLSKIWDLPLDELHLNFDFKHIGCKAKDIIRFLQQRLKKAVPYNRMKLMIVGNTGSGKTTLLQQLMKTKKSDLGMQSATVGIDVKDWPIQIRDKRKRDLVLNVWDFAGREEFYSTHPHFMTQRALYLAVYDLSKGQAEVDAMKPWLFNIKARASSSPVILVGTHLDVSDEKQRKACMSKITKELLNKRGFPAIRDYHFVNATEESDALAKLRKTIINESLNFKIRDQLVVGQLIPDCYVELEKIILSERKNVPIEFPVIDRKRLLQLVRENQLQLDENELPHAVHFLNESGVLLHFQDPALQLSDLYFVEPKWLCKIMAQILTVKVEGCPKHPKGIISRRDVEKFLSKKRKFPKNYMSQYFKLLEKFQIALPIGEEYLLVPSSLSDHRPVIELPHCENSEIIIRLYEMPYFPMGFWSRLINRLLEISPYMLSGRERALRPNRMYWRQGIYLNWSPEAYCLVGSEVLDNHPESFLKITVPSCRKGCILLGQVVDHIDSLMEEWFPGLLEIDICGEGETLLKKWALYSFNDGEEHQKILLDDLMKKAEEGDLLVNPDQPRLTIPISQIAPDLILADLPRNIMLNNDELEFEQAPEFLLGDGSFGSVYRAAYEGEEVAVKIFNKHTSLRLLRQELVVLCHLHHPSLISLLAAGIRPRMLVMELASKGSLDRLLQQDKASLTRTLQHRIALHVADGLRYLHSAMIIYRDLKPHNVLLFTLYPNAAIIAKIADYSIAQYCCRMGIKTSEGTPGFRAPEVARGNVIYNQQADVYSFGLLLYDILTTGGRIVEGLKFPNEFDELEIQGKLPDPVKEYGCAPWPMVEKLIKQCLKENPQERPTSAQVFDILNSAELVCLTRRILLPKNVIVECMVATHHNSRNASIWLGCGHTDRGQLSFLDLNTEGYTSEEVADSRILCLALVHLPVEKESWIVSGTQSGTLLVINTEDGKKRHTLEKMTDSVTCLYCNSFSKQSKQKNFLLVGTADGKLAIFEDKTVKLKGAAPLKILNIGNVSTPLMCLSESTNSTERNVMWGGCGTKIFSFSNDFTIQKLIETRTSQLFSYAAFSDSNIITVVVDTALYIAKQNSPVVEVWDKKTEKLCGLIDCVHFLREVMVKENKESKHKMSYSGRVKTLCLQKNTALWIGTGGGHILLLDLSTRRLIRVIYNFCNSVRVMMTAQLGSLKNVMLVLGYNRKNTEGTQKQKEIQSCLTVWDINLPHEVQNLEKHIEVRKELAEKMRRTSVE
Chain of LRRK2 (Q5S007 whole entry): as the sequence (Q5S007 whole entry G2019S) above, with S2019G counted along it
T2 sequence (Q5S007 whole entry): as the sequence (Q5S007 whole entry G2019S) above, with S2019G counted along it

The IC50 is the point on the concentration scale where inhibition reaches its midpoint. On LRRK2, `CC[C@H]1COC[C@H]1n1c(C#N)cc2cnc(Nc3cn(C)nc3OC(C)C)nc21` (racemic) [Example 72, 7-((cis)-4-ethyltetrahydrofuran-3-yl)-2-((3-isopropoxy-1-methyl-1 H-pyrazol-4-yl)amino)-7H-pyrrolo[2,3-d]pyrimidine-6-carbonitrile] yielded an IC50 of 83 nM.
`CC[C@@H]1COC[C@H]1n1c(C#N)cc2cnc(Nc3cn(C)nc3OC(C)C)nc21` (racemic) [Example 73, 7-((trans)-4-ethyltetrahydrofuran-3-yl)-2-((3-isopropoxy-1-methyl-1 H-pyrazol-4-yl)amino)-7H-pyrrolo[2,3-d]pyrimidine-6-carbonitrile]: the IC50 at LRRK2 was found to be 11 nM. Against the preceding molecule, the IC50 is about 7.5-fold lower.
For the molecule `CC(C)Oc1nn(C(C)C#N)cc1Nc1ncc2cc(C#N)n([C@@H]3COC[C@@H]3C)c2n1` (single isomer, unassigned) [Example 48, 2-((1-(1-cyanoethyl)-3-isopropoxy-1 H-pyrazol-4-yl)amino)-7-((cis)-4-methyltetrahydrofuran-3-yl)-7H-pyrrolo[2,3-d]pyrimidine-6-carbonitrile], the IC50 at LRRK2 came out at 256 nM.
Same read-out and setting: under `CC(C)Oc1nn(C(C)C#N)cc1Nc1ncc2cc(C#N)n([C@@H]3COC[C@@H]3C)c2n1` (single isomer, unassigned) [Example 49, 2-((1-(1-cyanoethyl)-3-isopropoxy-1 H-pyrazol-4-yl)amino)-7-((cis)-4-methyltetrahydrofuran-3-yl)-7H-pyrrolo[2,3-d]pyrimidine-6-carbonitrile] stands 274 nM; under `CC(C)Oc1nn(C(C)C#N)cc1Nc1ncc2cc(C#N)n([C@@H]3COC[C@@H]3C)c2n1` (single isomer, unassigned) [Example 50, 2-((1-(1-cyanoethyl)-3-isopropoxy-1 H-pyrazol-4-yl)amino)-7-((cis)-4-methyltetrahydrofuran-3-yl)-7H-pyrrolo[2,3-d]pyrimidine-6-carbonitrile], 7 nM; under `CC(C)Oc1nn(C(C)C#N)cc1Nc1ncc2cc(C#N)n([C@@H]3COC[C@@H]3C)c2n1` (single isomer, unassigned) [Example 51, 2-((1-(1-cyanoethyl)-3-isopropoxy-1 H-pyrazol-4-yl)amino)-7-((cis)-4-methyltetrahydrofuran-3-yl)-7H-pyrrolo[2,3-d]pyrimidine-6-carbonitrile], 5 nM.
With `Cn1cc(Nc2ncc3cc(C#N)n(C4CCOC4)c3n2)c(OC2COC2)n1` (single isomer, unassigned) [Example 52, 2-((1-methyl-3-(oxetan-3-yloxy)-1 H-pyrazol-4-yl)amino)-7-(tetrahydrofuran-3-yl)-7H-pyrrolo[2,3-d]pyrimidine-6-carbonitrile], on LRRK2, the IC50 came to 26 nM.
The molecule `Cn1cc(Nc2ncc3cc(C#N)n(C4CCOC4)c3n2)c(OC2COC2)n1` (single isomer, unassigned) [Example 53, 2-((1-methyl-3-(oxetan-3-yloxy)-1 H-pyrazol-4-yl)amino)-7-(tetrahydrofuran-3-yl)-7H-pyrrolo[2,3-d]pyrimidine-6-carbonitrile] registered an IC50 on LRRK2 of 266 nM.
As to `CO[C@H]1COC[C@H]1n1c(C#N)cc2cnc(Nc3cn(C(C)C#N)nc3OC(C)C)nc21` (single isomer, unassigned) [Example 57], on LRRK2, the IC50 was 27 nM. This IC50 is about 9.9-fold lower than that of the molecule before.
`Cn1cc(Nc2ncc3cc(C#N)n(C4CCCOC4)c3n2)c(OC2COC2)n1` (single isomer, unassigned) [Example 81, 2-((1-methyl-3-(oxetan-3-yloxy)-1 H-pyrazol-4-yl)amino)-7-(tetrahydro-2H-pyran-3-yl)-7H-pyrrolo[2,3-d]pyrimidine-6-carbonitrile] registered an IC50 at LRRK2 of 183 nM.
Turning to `Cn1cc(Nc2ncc3cc(C#N)n(C4CCCOC4)c3n2)c(OC2COC2)n1` (single isomer, unassigned) [Example 82, 2-((1-methyl-3-(oxetan-3-yloxy)-1 H-pyrazol-4-yl)amino)-7-(tetrahydro-2H-pyran-3-yl)-7H-pyrrolo[2,3-d]pyrimidine-6-carbonitrile], the IC50 at LRRK2 came to 104 nM.
For `C[C@@H]1COCC[C@H]1n1c(C#N)cc2cnc(Nc3cn(C)nc3OC3COC3)nc21` (single isomer, unassigned) [Example 83, 2-((1-methyl-3-(oxetan-3-yloxy)-1 H-pyrazol-4-yl)amino)-7-((trans)-3-methyltetrahydro-2H-pyran-4-yl)-7H-pyrrolo[2,3-d]pyrimidine-6-carbonitrile], the IC50 on LRRK2 came out at 134 nM. The IC50 values of the last two molecules are within 1.5-fold of each other.
In turn, `C[C@@H]1COCC[C@H]1n1c(C#N)cc2cnc(Nc3cn(C)nc3OC3COC3)nc21` (single isomer, unassigned) [Example 84, 2-((1-methyl-3-(oxetan-3-yloxy)-1 H-pyrazol-4-yl)amino)-7-((trans)-3-methyltetrahydro-2H-pyran-4-yl)-7H-pyrrolo[2,3-d]pyrimidine-6-carbonitrile] had an IC50 on LRRK2 of 7 nM.
As to `COCCn1cc(Nc2ncc3cc(C#N)n([C@H]4COC[C@@H]4C)c3n2)c(OC2CC2)n1` [Example 113, 2-((3-Cyclopropoxy-1-(2-methoxyethyl)-1 H-pyrazol-4-yl)amino)-7-((3R,4R)-4-methyltetrahydrofuran-3-yl)-7H-pyrrolo[2,3-d]pyrimidine-6-carbonitrile], the IC50 (at full-length LRRK2 G2019S; in experiment [1]) was 27 nM in each case.
Regarding `COCCn1cc(Nc2ncc3cc(C#N)n(C4CCOCC4)c3n2)c(OC2CC2)n1` [Example 122, 2-((3-Cyclopropoxy-1-(2-methoxyethyl)-1 H-pyrazol-4-yl)amino)-7-(tetrahydro-2H-pyran-4-yl)-7H-pyrrolo[2,3-d]pyrimidine-6-carbonitrile], the 50% inhibitory concentration (IC50) against full-length LRRK2 G2019S was determined as 222 nM; in experiment [1], 153 nM.
As for `COCC(C)n1cc(Nc2ncc3cc(C#N)n([C@H]4COC[C@@H]4C)c3n2)c(OC2COC2)n1` (stereo partly drawn) [Example 128, 2-((1-(1-Methoxypropan-2-yl)-3-(oxetan-3-yloxy)-1 H-pyrazol-4-yl)amino)-7-((3R,4R)-4-methyltetrahydrofuran-3-yl)-7H-pyrrolo[2,3-d]pyrimidine-6-carbonitrile], the values for the half-maximal inhibitory concentration (IC50) (at full-length LRRK2 G2019S; in experiment [1]) were 104 nM and 81 nM, respectively.
In the case of `COC[C@H](C)n1c(C#N)cc2cnc(Nc3cn(CCO)nc3OC3CCOCC3)nc21` [Example 138, (S)-2-((1-(2-hydroxyethyl)-3-((tetrahydro-2H-pyran-4-yl)oxy)-1 H-pyrazol-4-yl)amino)-7-(1-methoxypropan-2-yl)-7H-pyrrolo[2,3-d]pyrimidine-6-carbonitrile], the IC50 (at full-length LRRK2 G2019S; in experiment [1]) was 11 nM in each case.
As to `COC[C@H](C)n1c(C#N)cc2cnc(Nc3cn(CCO)nc3OC3COC3)nc21` [Example 139, (S)-2-((1-(2-hydroxyethyl)-3-(oxetan-3-yloxy)-1 H-pyrazol-4-yl)amino)-7-(1-methoxypropan-2-yl)-7H-pyrrolo[2,3-d]pyrimidine-6-carbonitrile], the IC50 at full-length LRRK2 G2019S was determined as 20 nM; in experiment [1] it was 22 nM.
Taken in the same sequence, the figures for `COC[C@H](C)n1c(C#N)cc2cnc(Nc3ccc(C(C)(C)O)cc3OC3CC3)nc21` [Example 154, (S)-2-((2-cyclopropoxy-4-(2-hydroxypropan-2-yl)phenyl)amino)-7-(1-methoxypropan-2-yl)-7H-pyrrolo[2,3-d]pyrimidine-6-carbonitrile] were 1 nM and 2 nM.

These data come from US20240383901A1, “SUBSTITUTED PYRROLO[2,3-D]PYRIMIDINES, THEIR PREPARATION AND THEIR THERAPEUTIC APPLICATION” (SANOFI, priority 2021, published 2024).
